Assay [1] has as its target T1, West Nile Virus (WNV) NS2B-NS3 protease (West Nile virus, UniProt Q9Q6P4).
T1 construct: NS2B1423-1470); purchased R&D 2907-SE-020
Nature of the assay: WNV protease inhibition assay. It counts as biochemical. Particulars: Table 4; letter codes for IC50. The text has this: WNV protease inhibition assay

The subject of a further assay is ZIKV replicon. Briefly: ZIKV replication inhibition assay (NanoLuc replicon in Vero cells). Particulars: 72 h. (In antiviral work, replicon cells carry a viral genome segment that copies itself.)
[2] abbreviates: Zika virus, Vero, read-out: ZIKA Cell_Nanoluc, Vero cells with stable ZIKV replicon, 72 h, Nano-Glo readout.
[3] abbreviates: Zika virus, Vero, read-out: ZIKA Cell_Nanoluc.
Setting [4] is: read-out: ZIKA Cell_Nanoluc, Vero cells with stable ZIKV replicon, Nano-Glo readout.

pEC50, pIC50: −log10 of the molar value. Where two headings read alike, the source gives them in different places.

T1 sequence (Q9Q6P4 1423-1470): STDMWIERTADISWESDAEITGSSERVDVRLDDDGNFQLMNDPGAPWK
T1 sequence (Q9Q6P4 1506-1689): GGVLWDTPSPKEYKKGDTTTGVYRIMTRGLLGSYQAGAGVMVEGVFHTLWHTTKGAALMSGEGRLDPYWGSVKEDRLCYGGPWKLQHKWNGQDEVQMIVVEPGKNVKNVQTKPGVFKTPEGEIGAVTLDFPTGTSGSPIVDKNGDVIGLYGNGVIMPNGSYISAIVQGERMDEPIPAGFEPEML

Molecule `Cc1ccccc1CC(=O)Nc1cc(NC(=O)[N-]c2c[n+]([C@@H]3CCC[C@H](CN(C)C)C3)no2)cc(C(F)(F)F)c1` (stereo in doubt) [Example 247, rac-(3-((1R,3S)-3-((Dimethylamino)methyl)-cyclohexyl)-1,2,3-oxadiazol-3-ium-5-yl)((3-(2-(o-tolyl)acetamido)-5-(trifluoromethyl)phenyl)-carbamoyl)amide] showed a negative-log IC50 (pIC50) in assay [1] of 6.00 to 7.00. Further, the pEC50 in the assay on ZIKV replicon (setting [2]) is 4.70 to 6.00.

For `Cc1ccccc1CC(=O)Nc1cc(NC(=O)[N-]c2c[n+]([C@H]3CC[C@H](C(=O)N4CCCC4)CC3)no2)cc(C(F)(F)F)c1` [Example 254, (3-((1R,4R)-4-(Pyrrolidine-1-carbonyl)-cyclohexyl)-1,2,3-oxadiazol-3-ium-5-yl)((3-(2-(o-tolyl)acetamido)-5-(trifluoromethyl)phenyl)-carbamoyl)amide], the pIC50 in assay [1] was over 7.00. Also, the pEC50 in the assay on ZIKV replicon (setting [3]) is 4.70 to 6.00.

With `C[C@@H](C(=O)Nc1cc(NC(=O)[N-]c2c[n+]([C@H]3CC[C@H](CN(C)C)CC3)no2)cc(C(F)(F)F)c1)c1ccccc1` [Example 175, (3-((1R,4R)-4-((Dimethylamino)methyl)-cyclohexyl)-1,2,3-oxadiazol-3-ium-5-yl)((3-((R)-2-phenylpropanamido)-5-(trifluoromethyl)-phenyl)carbamoyl)amide], the pIC50 in assay [1] was over 7.00. The pEC50 with ZIKV replicon (setting [3]) is 4.70 to 6.00.

`CNC(=O)[C@H]1CCC[C@@H]([n+]2cc([N-]C(=O)Nc3cc(NC(=O)Cc4ccccc4C)cc(C(F)(F)F)c3)on2)C1` (racemic) [Example 245, rac-(3-((1R,3S)-3-(Methylcarbamoyl)cyclohexyl)-1,2,3-oxadiazol-3-ium-5-yl)((3-(2-(o-tolyl)acetamido)-5-(trifluoromethyl)phenyl)carbamoyl)amide] had a pIC50 in assay [1] of 6.00 to 7.00. For the same molecule, the pEC50 in the assay with ZIKV replicon (setting [2]) was 4.70 to 6.00.

As for `CN(C)C[C@H]1CC[C@H]([n+]2cc([N-]C(=O)Nc3cc(NC(=O)Cc4c(F)cccc4Cl)cc(C(F)(F)F)c3)on2)CC1` [Example 198, ((3-(2-(2-Chloro-6-fluorophenyl)acetamido)-5-(trifluoromethyl)phenyl)carbamoyl)(3-((1R,4R)-4-((dimethylamino)methyl)cyclohexyl)-1,2,3-oxadiazol-3-ium-5-yl)amide], the pIC50 in assay [1] was 4.70 to 6.00. Further, in the assay with ZIKV replicon (setting [3]), the pEC50 is over 7.00.

In assay [1], `Cc1ncnc(C)c1-c1ccc(C[n+]2cc([N-]C(=O)Nc3cccc(C(F)(F)F)c3)on2)nn1` [Example 184, (3-((6-(4,6-Dimethylpyrimidin-5-yl)pyridazin-3-yl)methyl)-1,2,3-oxadiazol-3-ium-5-yl)((3-(trifluoromethyl)phenyl)carbamoyl)amide] had a pIC50 of 6.00 to 7.00. Also, the pEC50 in the assay on ZIKV replicon (setting [2]) is 6.00 to 7.00.

In turn, `Cc1ccccc1CC(=O)Nc1cc(NC(=O)[N-]c2c[n+]([C@@H]3CCC[C@H](C(N)=O)C3)no2)cc(C(F)(F)F)c1` [Example 255, (3-((1R,3S)-3-Carbamoylcyclohexyl)-1,2,3-oxadiazol-3-ium-5-yl)((3-(2-(o-tolyl)acetamido)-5-(trifluoromethyl)phenyl)carbamoyl)amide] gave a pIC50 in assay [1] of 6.00 to 7.00. Besides, the pEC50 in the assay with ZIKV replicon (setting [2]) was 4.70 to 6.00.

`CN(C)C[C@H]1CC[C@H]([n+]2cc([N-]C(=O)Nc3cc(NC(=O)Cc4ccccc4Cl)cc(C(F)(F)F)c3)on2)CC1` [Example 168, ((3-(2-(2-Chlorophenyl)acetamido)-5-(trifluoromethyl)phenyl)carbamoyl)(3-((1R,4R)-4-((dimethylamino)methyl)cyclohexyl)-1,2,3-oxadiazol-3-ium-5-yl)amide]: the negative-log IC50 (pIC50) in assay [1] was over 7.00. Besides, the pEC50 in the assay on ZIKV replicon (setting [3]) was 6.00 to 7.00.

In turn, `Cc1cn(C2COC2)nc1-c1ccc(C[n+]2cc([N-]C(=O)Nc3ccnc(C(F)(F)F)c3)on2)cc1` [Example 250, (3-(4-(4-Methyl-1-(oxetan-3-yl)-1H-pyrazol-3-yl)benzyl)-1,2,3-oxadiazol-3-ium-5-yl)((2-(trifluoromethyl)pyridin-4-yl)carbamoyl)amide] showed a pIC50 in assay [1] of 6.00 to 7.00. The pEC50 with ZIKV replicon (setting [2]) is 6.00 to 7.00.

For the molecule `CNC(=O)[C@H]1CC[C@H]([n+]2cc([N-]C(=O)Nc3cc(NC(=O)Cc4ccccc4C)cc(C(F)(F)F)c3)on2)CC1` [Example 251, rac-(3-((1R,4R)-4-(Methylcarbamoyl)-cyclohexyl)-1,2,3-oxadiazol-3-ium-5-yl)((3-(2-(o-tolyl)acetamido)-5-(trifluoromethyl)phenyl)-carbamoyl)amide], in assay [1], the negative logarithm of the IC50 (pIC50) is 6.00 to 7.00. The pEC50 in the assay with ZIKV replicon (setting [3]) is 4.70 to 6.00.

The molecule `Cc1ccccc1CC(=O)Nc1cc(NC(=O)[N-]c2c[n+](C[C@@H]3CCCC[C@H]3O)no2)cc(C(F)(F)F)c1` [Example 218, (3-(((1S,2R)-2-Hydroxycyclohexyl)methyl)-1,2,3-oxadiazol-3-ium-5-yl)((3-(2-(o-tolyl)acetamido)-5-(trifluoromethyl)phenyl)-carbamoyl)amide] had a pIC50 in assay [1] of 6.00 to 7.00. Also, the pEC50 in the assay on ZIKV replicon (setting [2]) was 6.00 to 7.00.

The molecule `COc1ncc(-c2ccc(C[n+]3cc([N-]C(=O)Nc4cc(NC(=O)Cc5ccccc5)cc(C(F)(F)F)c4)on3)cc2)c(C)n1` [Example 1, (3-(4-(2-Methoxy-4-methylpyrimidin-5-yl)benzyl)-1,2,3-oxadiazol-3-ium-5-yl)((3-(2-phenylacetamido)-5-(trifluoromethyl)phenyl)carbamoyl)amide] gave a negative logarithm of the IC50 (pIC50) in assay [1] of 4.70 to 6.00. Besides, the pEC50 with ZIKV replicon (setting [2]) is 4.70 to 6.00.

`Cc1nn(C)c(C)c1-c1ccc(C[n+]2cc([N-]C(=O)Nc3ccnc(C(F)(F)F)c3)on2)cc1` [Example 268, ((2-(Trifluoromethyl)pyridin-4-yl)carbamoyl)(3-(4-(1,3,5-trimethyl-1H-pyrazol-4-yl)benzyl)-1,2,3-oxadiazol-3-ium-5-yl)amide] showed a pIC50 in assay [1] of over 7.00. The pEC50 in the assay with ZIKV replicon (setting [2]) was over 7.00.

With `CN(C)C[C@H]1CC[C@H]([n+]2cc([N-]C(=O)Nc3cc(NC(=O)Cc4cccc(O)n4)cc(C(F)(F)F)c3)on2)CC1` [Example 196, (3-((1R,4R)-4-((Dimethylamino)methyl)-cyclohexyl)-1,2,3-oxadiazol-3-ium-5-yl)((3-(2-(6-hydroxypyridin-2-yl)acetamido)-5-(trifluoromethyl)phenyl)carbamoyl)amide], the pIC50 in assay [1] is 4.70 to 6.00. Moreover, the pEC50 with ZIKV replicon (setting [3]) was 6.00 to 7.00.

`CN(C)C[C@H]1CC[C@H]([n+]2cc([N-]C(=O)Nc3cc(NC(=O)C4Cc5ccccc54)cc(C(F)(F)F)c3)on2)CC1` (stereo partly shown) [Example 195] showed a pIC50 in assay [1] of 4.70 to 6.00. Also, the pEC50 in the assay on ZIKV replicon (setting [3]) is 6.00 to 7.00.

The molecule `CN(C)CC1CCC([n+]2cc([N-]C(=O)Nc3cc(NC(=O)CCc4cnccn4)cc(C(F)(F)F)c3)on2)CC1` [Example 158, (3-((1R,4R)-4-((Dimethylamino)methyl)-cyclohexyl)-1,2,3-oxadiazol-3-ium-5-yl)((3-(3-(pyrazin-2-yl)propanamido)-5-(trifluoromethyl-)phenyl)carbamoyl)amide] showed a pIC50 in assay [1] of 4.70 to 6.00. Besides, the pEC50 in the assay with ZIKV replicon (setting [4]) is under 4.70.

In assay [1], `COc1cc(NC(=O)[N-]c2c[n+](Cc3ccc(-c4c(C)ncnc4C)cc3)no2)ccn1` [Example 209, (3-(4-(4,6-Dimethylpyrimidin-5-yl)benzyl)-1,2,3-oxadiazol-3-ium-5-yl)((2-methoxypyridin-4-yl)carbamoyl)amide] showed a pIC50 of 6.00 to 7.00. Also, the pEC50 in the assay on ZIKV replicon (setting [2]) was 4.70 to 6.00.

In turn, `Cc1ccccc1CC(=O)Nc1cc(NC(=O)[N-]c2c[n+]([C@@H]3CCCC[C@@H]3N(C)C)no2)cc(C(F)(F)F)c1` (racemic) [Example 244, rac-(3-((1R,2S)-2-(Dimethylamino)cyclohexyl)-1,2,3-oxadiazol-3-ium-5-yl)((3-(2-(o-tolyl)acetamido)-5-(trifluoromethyl)phenyl)-carbamoyl)amide] had a negative logarithm of the IC50 (pIC50) in assay [1] of 6.00 to 7.00. In addition, the pEC50 in the assay on ZIKV replicon (setting [2]) was 4.70 to 6.00.

Consider `CN(C)[C@H]1CCC[C@@H]([n+]2cc([N-]C(=O)Nc3cc(NC(=O)Cc4ccccc4)cc(C(F)(F)F)c3)on2)C1` [Example 174, (3-((1R,3S)-3-(Dimethylamino)cyclohexyl)-1,2,3-oxadiazol-3-ium-5-yl)((3-(2-phenyl-acetamido)-5-(trifluoromethyl)phenyl)-carbamoyl)amide], for which, in assay [1], the negative logarithm of the IC50 (pIC50) is 6.00 to 7.00. Besides, the pEC50 in the assay with ZIKV replicon (setting [2]) is 4.70 to 6.00.

Molecule `Cc1ccccc1CC(=O)Nc1cc(NC(=O)[N-]c2c[n+]([C@@H]3CCC[C@H](O)C3)no2)cc(C(F)(F)F)c1` [Example 214, (3-((1R,3S)-3-Hydroxycyclohexyl)-1,2,3-oxadiazol-3-ium-5-yl)((3-(2-(o-tolyl)acetamido)-5-(trifluoromethyl)phenyl)carbamoyl)amide] had a pIC50 in assay [1] of 6.00 to 7.00. In addition, the pEC50 in the assay on ZIKV replicon (setting [2]) is 4.70 to 6.00.

In assay [1], `COC(=O)[C@@H]1CCC[C@@H]([n+]2cc([N-]C(=O)Nc3cc(NC(=O)Cc4ccccc4C)cc(C(F)(F)F)c3)on2)C1` [Example 224, (3-((1R,3R)-3-(Methoxycarbonyl)cyclohexyl)-1,2,3-oxadiazol-3-ium-5-yl)((3-(2-(o-tolyl)-acetamido)-5-(trifluoromethyl)phenyl)-carbamoyl)amide] showed a pIC50 of over 7.00. Moreover, the pEC50 in the assay on ZIKV replicon (setting [2]) was over 7.00.

In turn, `Cc1ccccc1CC(=O)Nc1cc(NC(=O)[N-]c2c[n+]([C@@H]3CCC[C@@H](C(N)=O)C3)no2)cc(C(F)(F)F)c1` [Example 235, (3-((1R,3R)-3-Carbamoylcyclohexyl)-1,2,3-oxadiazol-3-ium-5-yl)((3-(2-(o-tolyl)acetamido)-5-(trifluoromethyl)phenyl)carbamoyl)amide] had a pIC50 in assay [1] of over 7.00. In addition, the pEC50 in the assay on ZIKV replicon (setting [4]) is 6.00 to 7.00.

With `Cc1ncnc(C)c1-c1ccc(C[n+]2cc([N-]C(=O)N[C@H]3CC[C@@]4(C3)CC4(F)F)on2)nc1` (racemic) [Example 180, rac-(((3R,5S)-1,1-Difluorospiro[2.4]heptan-5-yl)carbamoyl)(3-((5-(4,6-dimethylpyrimidin-5-yl)pyridin-2-yl)methyl)-1,2,3-oxadiazol-3-ium-5-yl)amide], in assay [1], the pIC50 was 4.70 to 6.00. Besides, in the assay with ZIKV replicon (setting [2]), the pEC50 is 4.70 to 6.00.

Usually pIC50 stands for the IC50 on a negative log10 scale, so that one unit is a factor of ten. Low values mean a large IC50, high ones a small IC50.

For the origin of these results see patent publication EP4563146A1 (IRBM S.P.A., priority 2023, dated 2025).
